This passage reports IC50 results from patent US7932270B2 (Cytokinetics, Inc., priority 2006, dated 2011).

This assay concerns the target T1, chicken gizzard smooth muscle myosin subfragment-1 chemically crosslinked to cardiac or skeletal actin (Gallus gallus, UniProt P10587).
T1 construct: chicken gizzard smooth muscle myosin subfragment-1; from tissue; host or cells: chicken gizzard
Put plainly: Smooth muscle myosin ATPase dose response assay (pyruvate kinase/horseradish peroxidase/pyruvate oxidase-coupled, amplex red fluorescence). In kind it is biochemical. Particulars: read-out: IC50 Arithmetic Mean. The gist of the method: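 Amplex red fluorescence (480 nm excitation, 615 nm emission) tracked ATP hydrolysis by smooth muscle S1 crosslinked to actin with carbodiimide/N-hydroxysuccinimide. Reactions contained 0.15 mM ATP and 100 mM KCl at pH 7.00, 22° C. IC50 came from a four-parameter logistic fit.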

T1 sequence (P02607 2-151): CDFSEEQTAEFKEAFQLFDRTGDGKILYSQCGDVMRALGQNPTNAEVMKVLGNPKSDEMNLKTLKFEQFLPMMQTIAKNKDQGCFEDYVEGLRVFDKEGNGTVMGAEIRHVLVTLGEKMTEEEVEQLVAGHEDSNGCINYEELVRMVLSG
T1 sequence (P10587 84-789): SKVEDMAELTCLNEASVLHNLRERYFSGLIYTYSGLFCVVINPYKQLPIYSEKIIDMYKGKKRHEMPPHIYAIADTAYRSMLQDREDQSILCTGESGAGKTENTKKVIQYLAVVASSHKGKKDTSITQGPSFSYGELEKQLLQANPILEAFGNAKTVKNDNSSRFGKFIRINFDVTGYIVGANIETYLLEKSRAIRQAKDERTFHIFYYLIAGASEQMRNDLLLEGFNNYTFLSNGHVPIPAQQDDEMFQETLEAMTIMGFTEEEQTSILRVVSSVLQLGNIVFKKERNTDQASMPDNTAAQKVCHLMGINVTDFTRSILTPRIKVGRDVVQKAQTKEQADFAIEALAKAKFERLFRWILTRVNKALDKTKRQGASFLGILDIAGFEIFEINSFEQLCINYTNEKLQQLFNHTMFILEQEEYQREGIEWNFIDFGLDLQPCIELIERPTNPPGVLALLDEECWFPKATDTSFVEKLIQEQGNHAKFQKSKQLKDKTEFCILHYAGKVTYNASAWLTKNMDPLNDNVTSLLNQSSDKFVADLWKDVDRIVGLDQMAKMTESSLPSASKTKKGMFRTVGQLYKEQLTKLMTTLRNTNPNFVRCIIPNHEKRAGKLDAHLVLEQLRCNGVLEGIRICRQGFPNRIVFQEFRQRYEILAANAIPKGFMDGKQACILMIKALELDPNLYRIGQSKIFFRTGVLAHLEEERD

In general, IC50 refers to the point on the concentration scale where inhibition reaches its midpoint. On to `O=C(NCc1cccnc1)c1ccc(-c2ccccc2)nc1NCCc1c(F)cccc1F` [(2-{[2-(2,6-difluorophenyl)ethyl]amino}-6-phenyl(3-pyridyl))-N-(3-pyridylmethyl)carboxamide], for which the IC50 turned out to be 288 nM.

As for `N#Cc1ccccc1-c1ccc(C(=O)NCc2cccnc2)c(NCCc2ccccc2Cl)n1` [(2-{[2-(2-chlorophenyl)ethyl]amino}-6-(2-cyanophenyl)(3-pyridyl))-N-(3-pyridylmethyl)carboxamide], the concentration for half-maximal inhibition (IC50) was 28 nM.

`O=C(NCc1cccnc1)c1ccc(-c2ccccc2)nc1NCCc1ccccc1Cl` [(2-{[2-(2-chlorophenyl)ethyl]amino}-6-phenyl(3-pyridyl))-N-(3-pyridylmethyl)carboxamide]: the IC50 was 160 nM.

As to `O=C(NCc1cccnc1)c1ccc(-c2ccccc2)nc1NCCc1ccccc1F` [(2-{[2-(2-fluorophenyl)ethyl]amino}-6-phenyl(3-pyridyl))-N-(3-pyridylmethyl)carboxamide], the IC50 worked out at 107 nM.

Regarding `O=C(NCc1cccnc1)c1ccc(-c2ccccc2)nc1NCCc1ccccc1O` [(2-{[2-(2-hydroxyphenyl)ethyl]amino}-6-phenyl(3-pyridyl))-N-(3-pyridylmethyl)carboxamide], the IC50 was 2430 nM.

Take `COc1ccccc1CCNc1nc(-c2ccccc2)ccc1C(=O)NCc1cccnc1` [(2-{[2-(2-methoxyphenyl)ethyl]amino}-6-phenyl(3-pyridyl))-N-(3-pyridylmethyl)carboxamide]: the IC50 was 980 nM.

`Cc1ccccc1CCNc1nc(-c2ccccc2)ccc1C(=O)NCc1cccnc1` [(2-{[2-(2-methylphenyl)ethyl]amino}-6-phenyl(3-pyridyl))-N-(3-pyridylmethyl)carboxamide]: the IC50 was determined as 326 nM.

Take `O=C(NCc1cccnc1)c1ccc(-c2ccccc2)nc1NCCN1CCCCC1=O` [(2-{[2-(2-oxopiperidyl)ethyl]amino}-6-phenyl(3-pyridyl))-N-(3-pyridylmethyl)carboxamide]: the IC50 was 22100 nM.

As to `O=C(NCc1cccnc1)c1ccc(-c2ccccc2)nc1NCCN1CCCC1=O` [(2-{[2-(2-oxopyrrolidinyl)ethyl]amino}-6-phenyl(3-pyridyl))-N-(3-pyridylmethyl)carboxamide], the 50% inhibitory concentration (IC50) amounted to 10600 nM.

On to `O=C(NCc1cccnc1)c1ccc(-c2ccccc2)nc1NCCc1ccc(F)c(F)c1` [(2-{[2-(3,4-difluorophenyl)ethyl]amino}-6-phenyl(3-pyridyl))-N-(3-pyridylmethyl)carboxamide], for which the IC50 was 521 nM.

Turning to `N#Cc1ccccc1-c1ccc(C(=O)NCc2cccnc2)c(NCCc2cc(F)cc(F)c2)n1` [(2-{[2-(3,5-difluorophenyl)ethyl]amino}-6-(2-cyanophenyl)(3-pyridyl))-N-(3-pyridylmethyl)carboxamide], the IC50 came to 41 nM.

Take `O=C(NCc1cccnc1)c1ccc(-c2cccs2)nc1NCCc1cc(F)cc(F)c1` [(2-{[2-(3,5-difluorophenyl)ethyl]amino}-6-(2-thienyl)(3-pyridyl))-N-(3-pyridylmethyl)carboxamide]: the IC50 is 97 nM.

Regarding `O=C(NCc1cccnc1)c1ccc(-c2ccsc2)nc1NCCc1cc(F)cc(F)c1` [(2-{[2-(3,5-difluorophenyl)ethyl]amino}-6-(3-thienyl)(3-pyridyl))-N-(3-pyridylmethyl)carboxamide], the IC50 was 40 nM.

For `O=C(NCc1cccnc1)c1ccc(-c2ccc(F)cc2)nc1NCCc1cc(F)cc(F)c1` [(2-{[2-(3,5-difluorophenyl)ethyl]amino}-6-(4-fluorophenyl)(3-pyridyl))-N-(3-pyridylmethyl)carboxamide], the 50% inhibitory concentration (IC50) amounted to 138 nM.

Turning to `Cc1csc(-c2ccc(C(=O)NCc3cccnc3)c(NCCc3cc(F)cc(F)c3)n2)c1` [(2-{[2-(3,5-difluorophenyl)ethyl]amino}-6-(4-methyl(2-thienyl))(3-pyridyl))-N-(3-pyridylmethyl)carboxamide], the IC50 is 119 nM.

Regarding `O=C(NCc1cccnc1)c1ccc(-c2ccccc2)nc1NCCc1cc(F)cc(F)c1` [(2-{[2-(3,5-difluorophenyl)ethyl]amino}-6-phenyl(3-pyridyl))-N-(3-pyridylmethyl)carboxamide], the IC50 worked out at 55 nM.

For the compound `Cc1n[nH]c(C)c1CCNc1nc(-c2ccccc2)ccc1C(=O)NCc1cccnc1` [(2-{[2-(3,5-dimethylpyrazol-4-yl)ethyl]amino}-6-phenyl(3-pyridyl))-N-(3-pyridylmethyl)carboxamide], the half-inhibitory concentration (IC50) was 5940 nM.

On to `Cc1cc(C)n(CCNc2nc(-c3ccccc3)ccc2C(=O)NCc2cccnc2)n1` [(2-{[2-(3,5-dimethylpyrazolyl)ethyl]amino}-6-phenyl(3-pyridyl))-N-(3-pyridylmethyl)carboxamide], for which the IC50 worked out at 6830 nM.

As to `O=C(NCc1cccnc1)c1ccc(-c2ccccc2)nc1NCCc1cccc(Cl)c1` [(2-{[2-(3-chlorophenyl)ethyl]amino}-6-phenyl(3-pyridyl))-N-(3-pyridylmethyl)carboxamide], the IC50 was determined as 349 nM.

As to `N#Cc1cccc(CCNc2nc(-c3ccccc3)ccc2C(=O)NCc2cccnc2)c1` [(2-{[2-(3-cyanophenyl)ethyl]amino}-6-phenyl(3-pyridyl))-N-(3-pyridylmethyl)carboxamide], the IC50 was 4650 nM.

For `O=C(NCc1cccnc1)c1ccc(-c2ccccc2)nc1NCCc1ncccc1F` [(2-{[2-(3-fluoro(2-pyridyl))ethyl]amino}-6-phenyl(3-pyridyl))-N-(3-pyridylmethyl)carboxamide], the IC50 was 1480 nM.

Consider `O=C(NCc1cccnc1)c1ccc(-c2ccccc2)nc1NCC(O)c1cccc(F)c1` (stereo not shown) [(2-{[2-(3-fluorophenyl)-2-hydroxyethyl]amino}-6-phenyl(3-pyridyl))-N-(3-pyridylmethyl)carboxamide], for which the 50% inhibitory concentration (IC50) came out at 559 nM.

Regarding `O=C(NCc1cccnc1)c1c(CO)cc(-c2ccccc2)nc1NCCc1cccc(F)c1` [(2-{[2-(3-fluorophenyl)ethyl]amino}-4-(hydroxymethyl)-6-phenyl(3-pyridyl))-N-(3-pyridylmethyl)carboxamide], the IC50 was 59100 nM.

With `O=C(NCc1cccnc1)c1cc(CO)c(-c2ccccc2)nc1NCCc1cccc(F)c1` [(2-{[2-(3-fluorophenyl)ethyl]amino}-5-(hydroxymethyl)-6-phenyl(3-pyridyl))-N-(3-pyridylmethyl)carboxamide], the IC50 was found to be 625 nM.

Consider `O=C(NCc1cccnc1)c1cc2c(nc1NCCc1cccc(F)c1)-c1ccccc1C2=O` [(2-{[2-(3-fluorophenyl)ethyl]amino}-5-oxoindeno[3,2-b]pyridin-3-yl)-N-(3-pyridylmethyl)carboxamide], for which the IC50 is 88 nM.

On to `Cn1cc(-c2ccc(C(=O)NCc3cc[nH]n3)c(NCCc3cccc(F)c3)n2)cn1` [(2-{[2-(3-fluorophenyl)ethyl]amino}-6-(1-methylpyrazol-4-yl)(3-pyridyl))-N-(pyrazol-3-ylmethyl)carboxamide], for which the IC50 worked out at 31 nM.

As to `Cn1cc(-c2ccc(C(=O)NCC3CCNC3=O)c(NCCc3cccc(F)c3)n2)cn1` (stereo not shown) [(2-{[2-(3-fluorophenyl)ethyl]amino}-6-(1-methylpyrazol-4-yl)(3-pyridyl))-N-[(2-oxopyrrolidin-3-yl)methyl]carboxamide], the IC50 came to 248 nM.

For the compound `Cn1cc(-c2ccc(C(=O)NCC3CNCC(=O)N3)c(NCCc3cccc(F)c3)n2)cn1` (stereo not shown) [(2-{[2-(3-fluorophenyl)ethyl]amino}-6-(1-methylpyrazol-4-yl)(3-pyridyl))-N-[(6-oxopiperazin-2-yl)methyl]carboxamide], the IC50 was found to be 1240 nM.
